Drawing on ChEMBL document CHEMBL1152236 (Bioorg Med Chem, 2008), this text covers IC50 and Ki for nine molecules.

Test [1] deals with T1, Carbonic anhydrase 2 (Homo sapiens, UniProt P00918). Put plainly: Inhibition of human carbonic anhydrase 2 esterase activity by spectrophotometry.
Test [2] concerns the target T2, Carbonic anhydrase 1 (Homo sapiens, UniProt P00915). Put plainly: Inhibition of human carbonic anhydrase 1 esterase activity by spectrophotometry.
For test [3], the target named is T2, Carbonic anhydrase 1. Put plainly: Inhibition of human carbonic anhydrase 1 esterase activity by noncompetitive Lineweaver-Burke plot.
Test [4] concerns the target T1, Carbonic anhydrase 2. Nature of the test: Inhibition of human carbonic anhydrase 2 esterase activity by non-competitive Lineweaver-Burke plot.
The target of test [5] is T2, Carbonic anhydrase 1. Nature of the test: Inhibition of human carbonic anhydrase 1 esterase activity by uncompetitive Lineweaver-Burke plot.
The target in test [6] is T1, Carbonic anhydrase 2. Put plainly: Inhibition of human carbonic anhydrase 2 esterase activity by competitive Lineweaver-Burke plot.
In test [7] the target is T2, Carbonic anhydrase 1. Nature of the test: Inhibition of human carbonic anhydrase 1 esterase activity by competitive Lineweaver-Burke plot.
For test [8], the target named is T1, Carbonic anhydrase 2. Nature of the test: Inhibition of human carbonic anhydrase 2 esterase activity by uncompetitive Lineweaver-Burke plot.

A word on the IC50: it is the concentration needed to halve the response being measured. What is called Ki is a dissociation constant, usually derived from enzyme kinetics or from competition with a known ligand. The low end stands for higher affinity, the high end for lower affinity.

Structures are written as SMILES.

T2 sequence (P00915 whole entry): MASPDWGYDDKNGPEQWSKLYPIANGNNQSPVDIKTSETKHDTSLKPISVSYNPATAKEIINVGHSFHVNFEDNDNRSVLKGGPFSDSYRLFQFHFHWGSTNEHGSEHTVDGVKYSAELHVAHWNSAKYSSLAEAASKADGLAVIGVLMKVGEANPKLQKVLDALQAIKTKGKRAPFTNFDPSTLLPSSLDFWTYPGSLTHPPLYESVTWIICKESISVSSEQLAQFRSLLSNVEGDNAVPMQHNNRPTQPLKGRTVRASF

Take `Nc1ccc(C(=O)O)c(O)c1` [AMINOSALICYLIC ACID]: the IC50 was determined as 750 µM at Carbonic anhydrase 2 [1] and 130 µM against Carbonic anhydrase 1 [2]. Also, the Ki was 240 µM on Carbonic anhydrase 1 [3] and 1230 µM on Carbonic anhydrase 2 [4].
Regarding `O=C(O)c1ccc(S(=O)(=O)O)cc1O`, the figures for the IC50 against Carbonic anhydrase 2 [1] and on Carbonic anhydrase 1 [2] were 720 µM and 290 µM, respectively. The Ki amounted to 480 µM on Carbonic anhydrase 1 [5] and 1060 µM at Carbonic anhydrase 2 [6].
Take `O=C(O)c1cc(-c2ccc(F)cc2F)ccc1O` [DIFLUNISAL]: half-maximal inhibition on Carbonic anhydrase 1 [2] (IC50) was put at 3.38 µM. The same molecule came in with a Ki at Carbonic anhydrase 1 [3] of 8.45 µM.
For the molecule `O=C(O)c1c(O)cc([N+](=O)[O-])cc1[N+](=O)[O-]`, at Carbonic anhydrase 1 [2], half-maximal inhibition (IC50) was put at 7.64 µM. The Ki on Carbonic anhydrase 1 [3] stood at 14.8 µM.
Regarding `O=C(O)c1cc(Cl)ccc1O` [5-CHLOROSALICYLIC ACID], affinity on Carbonic anhydrase 1 [5] was put at a Ki of 4.16 µM. Moreover, at Carbonic anhydrase 1 [2], the IC50 turned out to be 4.07 µM.
Turning to `O=C(O)c1cc(S(=O)(=O)O)ccc1O` [SULFOSALICYLIC], the figures for the IC50 at Carbonic anhydrase 2 [1] and against Carbonic anhydrase 1 [2] were 290 µM and 420 µM, respectively. Moreover, the Ki on Carbonic anhydrase 2 [4] stood at 1920 µM; on Carbonic anhydrase 1 [7] it was 770 µM.
As to `O=C(O)c1cc(/N=N/c2ccc(S(=O)(=O)Nc3ccccn3)cc2)ccc1O` [SULFASALAZINE], the IC50 amounted to 4.49 µM against Carbonic anhydrase 2 [1] and 3.04 µM at Carbonic anhydrase 1 [2]. In addition, the Ki at Carbonic anhydrase 1 [3] turned out to be 6.87 µM; on Carbonic anhydrase 2 [4], 8.72 µM.
For `Cc1cccc(C(=O)O)c1O` [HYDROXYTOLUIC ACID], the IC50 at Carbonic anhydrase 2 [1] stood at 4700 µM; against Carbonic anhydrase 1 [2], 3070 µM. Further, the figures for the Ki at Carbonic anhydrase 1 [3] and on Carbonic anhydrase 2 [8] were 11400 µM and 10600 µM, respectively.
On Carbonic anhydrase 1 [2], `CC(=O)Oc1ccccc1C(=O)O` [ASPIRIN] had an IC50 of 2710 µM. At Carbonic anhydrase 1 [3], the Ki was 7530 µM.
